The source of these data is ChEMBL document CHEMBL4613209, “Quinolone hybrids and their anti-cancer activities: An overview” (Eur J Med Chem, 2019).

In the first experiment the test system is A549. Nature of the experiment: Cytotoxicity against human A549 cells assessed as reduction in cell viability after 72 hrs by MTT assay. The format is functional, cell-based. The conditions noted are these: A549, 72 h.
In the case of `CCn1cc(C(=O)O)c(=O)c2cc(F)c(N3CCN(C/C(=N/OCc4ccc(Cl)cc4)c4ccco4)CC3)cc21`, the IC50 was no more than 10 µM.

Another experiment concerns MCF7. The experiment in a line: Cytotoxicity against human MCF7 cells assessed as reduction in cell viability after 72 hrs by MTT assay. The experiment is classed as functional, cell-based. The conditions noted are these: MCF7, 72 h.
Turning to `CCn1cc(C(=O)O)c(=O)c2cc(F)c(N3CCN(C/C(=N/OCc4ccc(Cl)cc4)c4ccco4)CC3)cc21`, the IC50 was no more than 10 µM.

In the next experiment the test system is HT-29. The experiment in a line: Anticancer activity against human HT-29 cells by MTT assay.
Conditions: not given
The experiment is classed as functional, cell-based.
In turn, `CCOC(=O)c1cn(Cc2cn(-c3ccc(Cl)cc3)nn2)c2ccc(Cl)cc2c1=O` had an IC50 of 13.1 to 88.4 µM.

As to `CCOC(=O)c1cn(Cc2cn(-c3ccc(C)cc3)nn2)c2ccc(F)cc2c1=O`, the IC50 was 13.1 to 88.4 µM.

Turning to `CCOC(=O)c1cn(Cc2cn(-c3ccc(Cl)cc3)nn2)c2ccc(C)cc2c1=O`, the concentration for half-maximal inhibition (IC50) is 13.1 to 88.4 µM.

In turn, `CCOC(=O)c1cn(Cc2cn(-c3ccc(C)cc3)nn2)c2ccc(Cl)cc2c1=O` gave a half-inhibitory concentration (IC50) of 13.1 to 88.4 µM.

`CCOC(=O)c1cn(Cc2cn(-c3ccc([N+](=O)[O-])cc3)nn2)c2ccc(Cl)cc2c1=O` returned a half-maximal inhibitory concentration (IC50) of 13.1 to 88.4 µM.

A further experiment deals with KB. Nature of the experiment: Cytotoxicity against human KB cells assessed as reduction in cell viability after 72 hrs by MTT assay. The experiment is classed as functional, cell-based.
Conditions: not given
For the compound `CCn1cc(C(=O)O)c(=O)c2cc(F)c(N3CCN(C/C(=N/OCc4ccc(Cl)cc4)c4ccco4)CC3)cc21`, the 50% inhibitory concentration (IC50) was no more than 10 µM.

A further experiment has as its system SK-MEL3. The experiment in a line: Cytotoxicity against human SK-MEL-3 cells assessed as reduction in cell viability after 72 hrs by MTT assay. The format is functional, cell-based. The conditions noted are these: SK-MEL3, 72 h.
For the compound `CCn1cc(C(=O)O)c(=O)c2cc(F)c(N3CCN(C/C(=N/OCc4ccc(Cl)cc4)c4ccco4)CC3)cc21`, the concentration for half-maximal inhibition (IC50) was no more than 10 µM.

Another experiment concerns A 172. Nature of the experiment: Cytotoxicity against human A172 cells assessed as reduction in cell viability after 72 hrs by MTT assay. The experiment is classed as functional, cell-based. The conditions noted are these: A 172, 72 h.
For `CCn1cc(C(=O)O)c(=O)c2cc(F)c(N3CCN(C/C(=N/OCc4ccc(Cl)cc4)c4ccco4)CC3)cc21`, the IC50 was no more than 10 µM.

The test system of the next experiment is A2780. Nature of the experiment: Cytotoxicity against human A2780 cells assessed as reduction in cell viability after 72 hrs by MTT assay. The format is functional, cell-based. The conditions noted are these: A2780, 72 h.
For `CCn1cc(C(=O)O)c(=O)c2cc(F)c(N3CCN(C/C(=N/OCc4ccc(Cl)cc4)c4ccco4)CC3)cc21`, the IC50 was no more than 10 µM.

A further experiment deals with HepG2. Nature of the experiment: Anticancer activity against human HepG2 cells by MTT assay. The experiment is classed as functional, cell-based.
Conditions: not given
Regarding `CCOC(=O)c1cn(Cc2cn(-c3ccc(Cl)cc3)nn2)c2ccc(Cl)cc2c1=O`, the IC50 was in the range of 13.1 to 88.4 µM.

Take `CCOC(=O)c1cn(Cc2cn(-c3ccc(C)cc3)nn2)c2ccc(F)cc2c1=O`: the IC50 is 13.1 to 88.4 µM.

For the compound `CCOC(=O)c1cn(Cc2cn(-c3ccc(Cl)cc3)nn2)c2ccc(C)cc2c1=O`, the IC50 lay within 13.1 to 88.4 µM.

`CCOC(=O)c1cn(Cc2cn(-c3ccc(C)cc3)nn2)c2ccc(Cl)cc2c1=O` registered a 50% inhibitory concentration (IC50) of 13.1 to 88.4 µM.

`CCOC(=O)c1cn(Cc2cn(-c3ccc([N+](=O)[O-])cc3)nn2)c2ccc(Cl)cc2c1=O` came in with an IC50 of 13.1 to 88.4 µM.

The subject of the next experiment is SiHa. Nature of the experiment: Growth inhibition of human SiHa cells after 48 hrs by SRB assay. The format is functional.
Conditions: not given
`CCn1cc(C(=O)O)c(=O)c2cnc(N3CCN(C(=O)CCSc4nnnn4Cc4ccccc4)CC3)nc21` yielded a GI50 of no more than 0.1 µM.

A further experiment deals with NCI-H460. The experiment in a line: Growth inhibition of human NCI-H460 cells. The conditions noted are these: pooled result: one value given for 3 cell lines, strains, targets or settings. The experiment is classed as functional.
The compound `O=c1[nH]c2ccc(Cl)cc2c2[nH]c3ccccc3c12` showed a GI50 of 19 µM. That is a double-digit micromolar value.

In turn, `O=c1[nH]c2ccc(F)cc2c2oc3ccccc3c12` had a GI50 of 10.7 to 53.7 µM.

In turn, `O=c1[nH]c2ccccc2c2[nH]cc(-c3ccccc3)c12` came in with a GI50 of 18.2 µM.

Compound `O=c1[nH]c2ccccc2c2[nH]c(-c3ccccc3)c(-c3ccccc3)c12` showed a 50% growth inhibitory concentration (GI50) of 27.5 µM.

For `O=c1[nH]c2ccccc2c2[nH]c3ccccc3c12`, the GI50 is 19 µM. The GI50 values of the last two compounds are within 1.5-fold of each other.

The compound `COc1ccc2c(c1)[nH]c(=O)c1c3ccccc3oc21` returned a GI50 of 10.7 to 53.7 µM.

As for `COc1ccc2[nH]c(=O)c3c4ccccc4oc3c2c1`, the GI50 fell in the range of 10.7 to 53.7 µM.

Another experiment deals with MDA-MB-231. Nature of the experiment: Growth inhibition of human MDA-MB-231 cells after 48 hrs by SRB assay. The experiment is classed as functional. The conditions noted are these: MDA-MB-231, 48 h.
`CCn1cc(C(=O)O)c(=O)c2cnc(N3CCN(C(=O)CCSc4nnnn4Cc4ccccc4)CC3)nc21`: the GI50 was no more than 0.1 µM.

The test system of a further experiment is HL-60. The experiment in a line: Anticancer activity against human HL60 cells by MTT assay. The experiment is classed as functional, cell-based.
Conditions: not given
For the compound `CCOC(=O)c1cn(Cc2cn(-c3ccc(Cl)cc3)nn2)c2ccc(Cl)cc2c1=O`, the IC50 was in the range of 13.1 to 88.4 µM.

Take `CCOC(=O)c1cn(Cc2cn(-c3ccc(C)cc3)nn2)c2ccc(F)cc2c1=O`: the concentration for half-maximal inhibition (IC50) lay in the range of 13.1 to 88.4 µM.

Consider `CCOC(=O)c1cn(Cc2cn(-c3ccc(Cl)cc3)nn2)c2ccc(C)cc2c1=O`, for which the IC50 was in the range of 13.1 to 88.4 µM.

In turn, `CCOC(=O)c1cn(Cc2cn(-c3ccc(C)cc3)nn2)c2ccc(Cl)cc2c1=O` showed a half-maximal inhibitory concentration (IC50) of 13.1 to 88.4 µM.

Consider `CCOC(=O)c1cn(Cc2cn(-c3ccc([N+](=O)[O-])cc3)nn2)c2ccc(Cl)cc2c1=O`, for which the IC50 lay within 13.1 to 88.4 µM.

A further experiment relates to ACHN. The experiment in a line: Cytotoxicity against human ACHN cells assessed as reduction in cell viability after 72 hrs by MTT assay. The format is functional, cell-based.
Conditions: not given
Turning to `CCn1cc(C(=O)O)c(=O)c2cc(F)c(N3CCN(C/C(=N/OCc4ccc(Cl)cc4)c4ccco4)CC3)cc21`, the IC50 is no more than 10 µM.
